Results taken from patent US20100143265A1, “SYSTEM AND METHOD FOR THE DELIVERY OF A SANITIZING FOAM” (GREEN SOURCE AUTOMATED, LLC, priority 2008, published 2010).

Test: Gas solubility in water / dip solution
Type: physicochemical
Conditions: standard room temperature and 100 psi pressure
Description: Carbon dioxide (CO2) is soluble in water up to 1.45 g/L at 25° C. and 100 kPa. The amount of CO2 that can be dissolved into the dip solution is dependent on the temperature and pressure of the solution. The lower the temperature of the solution the less pressure that is required to saturate the solution with CO2. Conversely, the higher the temperature of the dip solution the more pressure that is required to saturate the solution with CO2.
The system (FIG. 3) was used with nitrous oxide as the propellant/diffusion gas. In an embodiment of the invention, nitrous oxide (N2O) can be used as a propellant/diffusion. N2O is partially soluble in water, but is almost completely soluble in fats and oils (the skin conditioner provided in the cow dip). Under standard room temperature and 100 psi pressure, approximately four volumes of N2O can be dissolved in one volume of the dip solution. The resulting nitrous oxide foam expands to approximately 6 mm in diameter, where the individual bubbles in the foam vary in size from approximately 1 micron to approximately 10 microns. After coalescing, the remaining liquid dries on the teat. It is noted that the amount of N2O that can be dissolved in one volume of dip solution will increase if more conditioners (containing one or more of fats, oils, fatty acids and triglycerides) are used since N2O is almost completely soluble in fats and oils. […]

Row | volumes dissolved (gas and dip solution) | Compound
1 | approximately 4.5 volumes | O=C=O [CO2, Carbon dioxide]
2 | approximately four | [N-]=[N+]=O [Example N2O, nitrous oxide]
